Patent US10155781B2, “Co-crystals, salts and solid forms of tenofovir alafenamide” (Gilead Sciences, Inc., priority 2015, dated 2018)
Structures can show the parent of a compound that is named as a salt.

details: solid material, compared by XRPD
Source text: Two XRPD systems were used for the characterization of the samples.
(1) Bruker AXS C2 GADDS diffractometer uses Cu Kalpha radiation (40 kV, 40 mA), automated XYZ stage, laser video microscope for auto-sample positioning and a HiStar 2-dimensional area detector. X-ray optics consists of a single Göbel multilayer mirror coupled with a pinhole collimator of 0.3 mm. The beam divergence, i.e. the effective size of the X-ray beam on the sample, was approximately 4 mm. A θ-θ continuous scan mode was employed with a sample-detector distance of 20 cm which gives an effective 20 range of 3.2°-29.7°. Typically the sample was exposed to the X-ray beam for 120 seconds. The software used for data collection was GADDS for XP/2000 4.1.36 and the data was analyzed and presented using Diffrac Plus EVA v13.0.0.2 or v15.0.0.0.
Samples run under ambient conditions were prepared as flat plate specimens using powder as received without grinding. Approximately 1-2 mg of the sample was lightly pressed on a glass slide to obtain a flat surface.
(2) Bruker D8 diffractometer uses Cu Ka radiation (40 kV, 40 mA), θ-2θ goniometer, and divergence of V4 and receiving slits, a Ge monochromator and a Lynxeye detector. The software used for data collection was Diffrac Plus XRD Commander v2.6.1 and the data was analyzed and presented using Diffrac Plus EVA v13.0.0.2 or v15.0.0.0.
Samples were run under ambient conditions as flat plate specimens using powder as received. The sample was gently packed into a cavity cut into polished, zero-background (510) silicon wafer. The sample was rotated in its own plane during analysis. The details of the data collection was: Angular range: 2 to 42° 2θ; Step size: 0.05° 2θ; Collection time: 0.5 s/step
(3) PANanalytical XPERT-PRO diffractometer at ambient conditions under the following experimental settings: 45 KV, 40 mA, Kα1=1.5406 Å, scan range 2 to 40°, step size 0.0084 or 0.0167°, measurement time: 5 min.

Structure (SMILES)	XRPD pattern after storage at 40° C. 75% RH for 14 days (solid form stability)
CC(C)OC(=O)[C@H](C)N[P@](=O)(CO[C@H](C)Cn1cnc2c(N)ncnc21)Oc1ccccc1 [Tenofovir alafenamide methanesulfonate pattern 1]	changed to another form
CC(C)OC(=O)[C@H](C)N[P@](=O)(CO[C@H](C)Cn1cnc2c(N)ncnc21)Oc1ccccc1 [tenofovir alafenamide L-malate, Tenofovir Alafenamide L-Malate]	no change
CC(C)OC(=O)[C@H](C)N[P@](=O)(CO[C@H](C)Cn1cnc2c(N)ncnc21)Oc1ccccc1 [tenofovir alafenamide benzenesulfonate, Tenofovir Alafenamide Benzenesulfonate]	no change
CC(C)OC(=O)[C@H](C)N[P@](=O)(CO[C@H](C)Cn1cnc2c(N)ncnc21)Oc1ccccc1 [tenofovir alafenamide ethanesulfonate, Tenofovir Alafenamide Ethanesulfonate]	no XRPD change
CC(C)OC(=O)[C@H](C)N[P@](=O)(CO[C@H](C)Cn1cnc2c(N)ncnc21)Oc1ccccc1 [tenofovir alafenamide mucate pattern 1, Tenofovir Alafenamide Mucate]	no change
CC(C)OC(=O)[C@H](C)N[P@](=O)(CO[C@H](C)Cn1cnc2c(N)ncnc21)Oc1ccccc1 [tenofovir alafenamide mucate pattern 2, Tenofovir Alafenamide Mucate]	no change
CC(C)OC(=O)[C@H](C)N[P@](=O)(CO[C@H](C)Cn1cnc2c(N)ncnc21)Oc1ccccc1 [tenofovir alafenamide oxalate, Tenofovir Alafenamide Oxalate]	no change in XRPD
CC(C)OC(=O)[C@H](C)N[P@](=O)(CO[C@H](C)Cn1cnc2c(N)ncnc21)Oc1ccccc1 [tenofovir alafenamide saccharin, Tenofovir Alafenamide Saccharin]	same XRPD pattern was obtained

same assay, conditions: solid material, compared by XRPD, Hydrochloride

Structure (SMILES)	XRPD pattern after storage at 40° C. 75% RH for 14 days (solid form stability)
CC(C)OC(=O)[C@H](C)N[P@](=O)(CO[C@H](C)Cn1cnc2c(N)ncnc21)Oc1ccccc1 [tenofovir alafenamide hydrochloride, Tenofovir Alafenamide Hydrochloride]	remained unchanged
